{
  "source": "patent US20230183179A1",
  "about": "“NOVEL CELL METABOLISM MODULATING COMPOUNDS AND USES THEREOF” (CRESCENTA BIOSCIENCES, priority 2020, published 2023)",
  "data": [
    {"tested_on": "differentiated 3T3-L1 mouse adipocyte cells", "test": "Adipocyte glucose consumption in differentiated 3T3-L1 cells (colorimetric glucose assay of the medium)", "assay_type": "cell-based", "details": "3T3-L1, 24 h, compound 10 μM, loss of glucose from culture medium, mean fold change (compound/DMSO)", "procedure": "Activity of compounds on adipocyte glucose consumption was tested in differentiated 3T3-L1 mouse adipocyte cells. 3T3-L1 preadipocytes (ATCC) were routinely cultured in a growth medium composed of DMEM high-glucose (Sigma), 10% FBS (Gibco), 10 U/ml penicillin and 10 μg/ml streptomycin (P/S; Gibco). To induce adipogenic differentiation, a confluent layer of 3T3-L1 cells were incubated with the growth medium containing 2 μM rosiglitazone, 1 μM dexamethasone, 500 μM IBMX, and 1 μg/ml insulin (Sigma). Forty-eight (48) hours later (on day 2) and on days 4 and 6, medium of the cells was replaced with fresh medium containing 1 μg/ml insulin. On days 8 and 10, the medium was refreshed with regular growth medium and addition of insulin was omitted. On day 11, medium of the cells were 10 replaced with fresh medium containing either the indicated compounds (10 μM) or the vehicle in which the compounds were dissolved (DMSO). The final concentration of DMSO was 0.1% (v/v). Growth medium containing 0.1% DMSO was incubated in culture wells containing no cells and used as control. 24 hours later, medium was harvested and subjected to centrifugation at 10,000 g for 5 min. Glucose concentration in the supernatants was determined using a 15 colorimetric assay (Glucose Assay Kit I, Eton Biosciences). Glucose consumption in compound and vehicle treated cells was measured as loss of glucose from the culture medium and represented as mean fold change (compound/DMSO)±standard deviation (SD).", "values": [
      {"molecule": "CCCCCCc1ccc2nc(N3CCCCC3)cc(-c3ccccc3)c2c1", "note": "[6-hexyl-4-phenyl-2-(piperidin-1-yl)quinoline]", "fold induction at 10 µM": 1.18},
      {"molecule": "CN(CC(=O)O)c1cc(-c2ccccc2)c2ccc(Br)cc2n1", "note": "[2-[(7-bromo-4-phenylquinolin-2-yl)(methyl)amino]acetic acid]", "fold induction at 10 µM": 1.19},
      {"molecule": "CCCCc1ccc2nc(N(C)CC(=O)O)cc(-c3ccccc3)c2c1", "note": "[2-[(6-butyl-4-phenylquinolin-2-yl)(methyl)amino]acetic acid]", "fold induction at 10 µM": 1.37},
      {"molecule": "CCCCCCc1ccc2nc(NCC(=O)O)cc(-c3ccc(F)cc3)c2c1", "note": "[2-([4-(4-fluorophenyl)-6-hexylquinolin-2-yl]amino}acetic acid]", "fold induction at 10 µM": 1.12},
      {"molecule": "CCCCCCc1ccc2nc(/C=C3/SC(=O)NC3=O)cc(-c3ccccc3)c2c1", "note": "[5-[(6-hexyl-4-phenylquinolin-2-yl)methylidene]-1,3-thiazolidine-2,4-dione]", "fold induction at 10 µM": 1.29},
      {"molecule": "CCCCCCc1ccc2nc([C@@H]3C[C@H]3C(=O)O)cc(-c3ccccc3)c2c1", "note": "(relative stereo) [trans-2-(6-hexyl-4-phenylquinolin-2-yl)cyclopropane-1-carboxylic acid]", "fold induction at 10 µM": 1.14},
      {"molecule": "CCCCCCc1ccc2nc(N(C)c3nn[nH]n3)cc(-c3ccccc3)c2c1", "note": "[6-hexyl-N-methyl-4-phenyl-N-(2H-1,2,3,4-tetrazol-5-yl)quinolin-2-amine]", "fold induction at 10 µM": 1.11},
      {"molecule": "CCCCCCc1ccc2nc(N(C)CC(=O)O)cc(-c3c(C)noc3C)c2c1", "note": "[2-{[4-(3,5-dimethyl-1,2-oxazol-4-yl)-6-hexylquinolin-2-yl](methyl)amino}acetic acid]", "fold induction at 10 µM": 1.22},
      {"molecule": "CCCCCCc1ccc2nc(N(C)CC(=O)O)cc(-c3cccc(C#N)c3)c2c1", "note": "[2-{[4-(3-cyanophenyl)-6-hexylquinolin-2-yl](methyl)amino}acetic acid]", "fold induction at 10 µM": 1.26},
      {"molecule": "CCCCCCc1ccc2nc(C(C)CC(=O)O)cc(-c3ccccc3)c2c1", "note": "(stereo not drawn) [3-(6-hexyl-4-phenylquinolin-2-yl)butanoic acid]", "fold induction at 10 µM": 1.3},
      {"molecule": "CCCCCCCCCCc1ccc2nc(N(C)CC(=O)O)cc(-c3ccc(F)cc3)c2c1", "note": "[2-{[6-decyl-4-(4-fluorophenyl)quinolin-2-yl](methyl)amino}acetic acid]", "fold induction at 10 µM": 1.37},
      {"molecule": "CCCCCCc1ccc2nc(N(C)CC(=O)NCCO)cc(-c3ccccc3)c2c1", "note": "[2-[(6-hexyl-4-phenylquinolin-2-yl)(methyl)amino]-N-(2-hydroxyethyl)acetamide]", "fold induction at 10 µM": 1.11},
      {"molecule": "CCCCCCc1ccc2nc(CC3SC(=O)NC3=O)cc(-c3ccccc3)c2c1", "note": "(stereo not drawn) [5-[(6-hexyl-4-phenylquinolin-2-yl)methyl]-1,3-thi azolidine-2,4-dione]", "fold induction at 10 µM": 1.33},
      {"molecule": "CCCCCCc1ccc2nc(N(C)CC(=O)O)cc(-c3ccccc3F)c2c1", "note": "[2-{[4-(2-fluorophenyl)-6-hexylquinolin-2-yl](methyl)amino}acetic acid]", "fold induction at 10 µM": 1.26},
      {"molecule": "CCc1ccc(-c2ccc3nc(N(C)CC(=O)O)cc(-c4ccccc4)c3c2)cc1", "note": "[2-{[6-(4-ethylphenyl)-4-phenylquinolin-2-yl](methyl)amino}acetic acid]", "fold induction at 10 µM": 1.06},
      {"molecule": "CCCCCCc1ccc2nc([C@H]3C[C@H]3C(=O)O)cc(-c3ccccc3)c2c1", "note": "(relative stereo) [cis-2-(6-hexyl-4-phenylquinolin-2-yl)cyclopropane-1-carboxylic acid]", "fold induction at 10 µM": 1.36},
      {"molecule": "CCCC/C=C/c1ccc2nc(N(C)CC(=O)O)cc(-c3ccccc3)c2c1", "note": "[2-({6-[(1E)-hex-1-en-1-yl]-4-phenylquinolin-2-yl}(methyl)amino)acetic acid]", "fold induction at 10 µM": 1.32},
      {"molecule": "CCCCCCc1ccc2nc(N3CCC(C(=O)O)C3)cc(-c3ccccc3)c2c1", "note": "(stereo not drawn) [1-(6-hexyl-4-phenylquinolin-2-yl)pyrrolidine-3-carboxylic acid]", "fold induction at 10 µM": 1.24},
      {"molecule": "CCCCc1ccc2nc(N(C)CCC(=O)O)cc(-c3ccccc3)c2c1", "note": "[3-[(6-butyl-4-phenylquinolin-2-yl)(methyl)amino]propanoic acid]", "fold induction at 10 µM": 1.1},
      {"molecule": "CN(CC(=O)O)c1cc(-c2ccccc2)c2cc(/C=C/c3ccccc3)ccc2n1", "note": "[2-[methyl({4-phenyl-6-[(1E)-2-phenylethenyl]quinolin-2-yl})amino]acetic acid]", "fold induction at 10 µM": 1.21},
      {"molecule": "CCCCCCCc1ccc2nc(N(C)CC(=O)O)cc(-c3ccccc3)c2c1", "note": "[2-[(6-heptyl-4-phenylquinolin-2-yl)(methyl)amino]acetic acid]", "fold induction at 10 µM": 1.4},
      {"molecule": "CN(CC(=O)O)c1cc(-c2ccccc2)c2cc(CCc3ccccn3)ccc2n1", "note": "[2-[methyl({4-phenyl-6-[2-(pyridin-2-yl)ethyl]quinolin-2-yl})amino]acetic acid]", "fold induction at 10 µM": 1.39},
      {"molecule": "CCCCCCc1ccc2nc(N(C)CC(=O)O)cc(-c3cccc(C)c3)c2c1", "note": "[2-{[6-hexyl-4-(3-methylphenyl)quinolin-2-yl](methyl)amino}acetic acid]", "fold induction at 10 µM": 1.11},
      {"molecule": "CN(CC(=O)O)c1cc(-c2ccccc2)c2cc(CCc3ccccc3)ccc2n1", "note": "[2-{methyl [4-phenyl-6-(2-phenylethyl)quinolin-2-yl]amino}acetic acid]", "fold induction at 10 µM": 1.48},
      {"molecule": "CCCCCCc1ccc2nc(OC(C)C(=O)O)cc(-c3ccccc3)c2c1", "note": "(stereo not drawn) [2-[(6-hexyl-4-phenylquinolin-2-yl)oxy]propanoic acid]", "fold induction at 10 µM": 1.25},
      {"molecule": "CCCCCCc1ccc2nc(N(C)CC(=O)O)cc(-c3ccccc3C(=O)O)c2c1", "note": "[2-{2-[(carboxymethyl)(methyl)amino]-6-hexylquinolin-4-yl}benzoic acid]", "fold induction at 10 µM": 1.17},
      {"molecule": "O=C(O)C1CCN(c2cc(-c3ccccc3)c3cc(CCc4ccccc4)ccc3n2)C1", "note": "(stereo not drawn) [1-[4-phenyl-6-(2-phenylethyl)quinolin-2-yl]pyrrolidine-3-carboxylic acid]", "fold induction at 10 µM": 1.21},
      {"molecule": "CCCCCCc1ccc2nc(N3CC(C(=O)O)C3)cc(-c3ccccc3)c2c1", "note": "[1-(6-hexyl-4-phenylquinolin-2-yl)azetidine-3-carboxylic acid]", "fold induction at 10 µM": 1.27}
    ]},
    {"biological_target": "T1, His6 tagged human recombinant FABP4 (Homo sapiens, UniProt P15090)", "T1 construct": "purchased Cayman Chemicals 10009549", "T1 sequence (P15090 whole entry)": "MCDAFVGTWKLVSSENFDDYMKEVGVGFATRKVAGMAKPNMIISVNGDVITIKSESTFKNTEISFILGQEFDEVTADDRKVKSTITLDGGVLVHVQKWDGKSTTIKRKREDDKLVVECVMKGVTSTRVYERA", "test": "FABP4 TR-FRET assay: displacement of fluorescent fatty acid BODIPY FL C12", "details": "inhibition of BODIPY FL C12 binding to His6-FABP4; 1.2 μL of 1.085 mM compound in DMSO per well; triplicates, mean percent inhibition", "description": "Activity of compounds with FABP4 was profiled using a Terbium (Tb) based time resolved fluorescence energy transfer (TR-FRET) assay. The assay measures the compound mediated displacement of the fluorescent fatty acid BODIPY FL C12 (Thermo Fisher; catalog number D3822) from His6 tagged human recombinant FABP4 (His6-FABP4; Cayman Chemicals, catalog number 10009549) via recording the energy transfer from TB donor molecule on anti-His6-tag antibody to acceptor BODIPY moiety. Briefly, compounds and BODIPY FL C12 were prepared at a concentration of 1.085 mM and 4.2 μM, respectively, in DMSO. 1.2 μL of each compound or DMSO (vehicle control) and 1.2 μL of BODIPY FL C12 were added into the wells of a 384-well black polypropylene plate. His6-FABP4 and Tb anti-His6 antibody were prepared in the assay buffer (25 mM Tris/HCl, pH 7.4, 0.4 mg/ml γ-globulins, 0.010% NP-40, 1 mM DTT) at a concentration of 83 nM and 49.6 nM, respectively. The protein and antibody solutions were then mixed at a ratio of 34:7 (v/v) and incubated on ice for 30 minutes. The assay was initiated by adding 41 μL of the resulting protein/antibody solution into the wells containing the compounds and BODIPY FL C12. The plate was centrifuged and incubated at room temperature for 10 min. The TR-FRET signals were recorded using an EnVision Multilabel plate reader (PerkinElmer; TB excitation 320 nm, BODIPY FL C12 emission 520 nm; TB emission 615 nm). Relative fluorescence ratio (520 nm*10,000/615 nm) were used to calculate the compound mediated inhibition of BODIPY C12 FL fatty acid binding to FABP4. The compounds were tested in triplicates and the results were represented as mean percent inhibition (compound*100/DMSO)±standard deviation (SD). Glucose consumption and FABP4 inhibition is shown below in Table 3 below. The compounds showing no inhibition of activity in the TR-FRET assay are marked as N.A. N.D. stands for “not determined”.", "units": {"inhibition at 1085 µM (stock)": "%"}, "values": [
      {"molecule": "CCCCCCc1ccc2nc(N3CCCCC3)cc(-c3ccccc3)c2c1", "note": "[6-hexyl-4-phenyl-2-(piperidin-1-yl)quinoline]", "inhibition at 1085 µM (stock)": 46.3},
      {"molecule": "CN(CC(=O)O)c1cc(-c2ccccc2)c2ccc(Br)cc2n1", "note": "[2-[(7-bromo-4-phenylquinolin-2-yl)(methyl)amino]acetic acid]", "inhibition at 1085 µM (stock)": 84.5},
      {"molecule": "CN(CC(=O)O)c1cc(-c2ccccc2)c2cc(CCc3nc4ccccc4n3C)ccc2n1", "note": "[2-[methyl({6-[2-(1-methyl-1H-1,3-benzodiazol-2-yl)ethyl]-4-phenylquinolin-2-yl})amino]acetic acid]", "inhibition at 1085 µM (stock)": 30.3},
      {"molecule": "CN(CC(=O)O)c1cc(-c2ccccc2)c2cc(CCN3CCCC3)ccc2n1", "note": "[2-[methyl({4-phenyl-6-[2-(pyrrolidin-1-yl)ethyl]quinolin-2-yl})amino]acetic acid]", "inhibition at 1085 µM (stock)": 2.04},
      {"molecule": "CN(CC(=O)O)c1cc(-c2ccccc2)c2cc(CCN3CCc4ccccc4C3)ccc2n1", "note": "[2-[methyl({4-phenyl-6-[2-(1,2,3,4-tetrahydroisoquinolin-2-yl)ethyl]quinolin-2-yl})amino]acetic acid]", "inhibition at 1085 µM (stock)": 21.7},
      {"molecule": "CN(CC(=O)O)c1cc(-c2ccccc2)c2cc(CCN3CCC(O)CC3)ccc2n1", "note": "[2-({6-[2-(4-hydroxypiperidin-1-yl)ethyl]-4-phenylquinolin-2-yl}(methyl)amino)acetic acid]", "inhibition at 1085 µM (stock)": 14.3},
      {"molecule": "CN(CC(=O)O)c1cc(-c2ccccc2)c2cc(CCN3CCc4ccccc43)ccc2n1", "note": "[2-({6-[2-(2,3-dihydro-1H-indol-1-yl)ethyl]-4-phenylquinolin-2-yl}(methyl)amino)acetic acid]", "inhibition at 1085 µM (stock)": 76.3},
      {"molecule": "CCN(CC)CCc1ccc2nc(N(C)CC(=O)O)cc(-c3ccccc3)c2c1", "note": "[2-({6-[2-(diethylamino)ethyl]-4-phenylquinolin-2-yl}(methyl)amino)acetic acid]", "inhibition at 1085 µM (stock)": 5.17}
    ]}
  ]
}
